Assay results taken from patent publication US20250041306A1, “TARGETED PROTEASE DEGRADATION (TED) PLATFORM” (EUBULUS BIOTHERAPEUTICS INC., priority 2021, published 2025).
Read-outs that look alike come from different tables or passages of the source. Numbered stars: 1 amine (or outer) side, 2 acyl side, 3 side chain; on linkers, the order of the positions; unused ones are H or OH. Bridge positions count the residues as written; N and C are the ends. Square brackets hold non-standard residues; d marks the D form. Peptide text beside a SMILES is read from it. I, II: the chains in the order shown. * marks the point of attachment. X1 = NC(=O)c1ccccc1Nc1nc(Nc2ccc(N3CCN(C(=O)NC4CCC(N(CCC#Cc5ccc6c(c5)CN(C5CCC(=O)NC5=O)C6=O)C(=O)OCCS*)CC4)CC3)cc2)ncc1Cl; X2 = NC(=O)c1ccccc1Nc1nc(Nc2ccc(N3CCN(C(=O)NC4CCC(N(CCC#Cc5ccc6c(c5)CN(C5CCC(=O)NC5=O)C6=O)*)CC4)CC3)cc2)ncc1Cl; Succinimide(1-C2H4CO,3-yl) = O=C1CC([*:1])C(=O)N1CCC(=O)[*:2]; PABC = O=C(OCc1ccc(N[*:1])cc1)[*:2]; Thr(ol) = C[C@@H](O)[C@H](N)CO

How the values were obtained:
Format in all cases: cell-based
[1] = test system: Human Small Cell Lung Cancer NCI-H82; assay: Cell proliferation experiment (Alarm blue), H82
Procedure: (§1) The cells were cultured in conventional ways, and the cells should be passed for at least 2 generations before plating. Cells at the logarithmic growth phase were collected, prepared into single cell suspensions and counted. The concentration of cells was adjusted to desired concentration, and cells were inoculated into a 96-well cell culture plate at 100 μl per well. 100 μL of complete medium of the test compound were added to each well, 2 replicate wells for each concentration were set up, and diluted with a 5-fold gradient, and continued to culture for 72 h. All cells were subjected to EC50 test for corresponding samples.
(§2) The fluorescence intensity of each well was detected using the Alarm blue method, and IC50 was calculated.
(§3) IC50 was calculated according to the following formula:
(§4) [formula] • wherein Min, Max and Slope represent the minimum, maximum and slope respectively.

[2] = test system: human gastric carcinoma cells N87; assay: Cell proliferation experiment (Alarm blue), N87
Procedure: as §1, §2, §3, §4

[3] = test system: Human Colon Cancer cells Colo205; assay: Cell proliferation experiment (Alarm blue), Colo205
Procedure: as §1, §2, §3, §4

[4] = test system: Human Small Cell Lung Cancer H69; assay: Cell proliferation experiment (Alarm blue), H69
Procedure: as §1, §2, §3, §4

[5] = test system: Human Colon Cancer HT-29; assay: Cell proliferation experiment (Alarm blue), HT-29
Procedure: as §1, §2, §3, §4

[6] = H82 cells, 72 h culture, read-out: Anti cell proliferative activity EC50, H82
[7] = N87 cells, 72 h culture, read-out: Anti cell proliferative activity EC50, N87
[8] = Colo205 cells, 72 h culture, read-out: Anti cell proliferative activity EC50, Colo205
[9] = H69 cells, 72 h culture, read-out: Anti cell proliferative activity EC50, H69
[10] = HT-29 cells, 72 h culture, read-out: Anti cell proliferative activity EC50, HT-29

EC50 ([1]; 72 h) [nM]	EC50 ([2]; 72 h) [nM]	EC50 ([3]; 72 h) [nM]	EC50 ([4]; 72 h) [nM]	EC50 ([5]; 72 h) [nM]	SMILES	EC50 [1, 6] [nM]	EC50 [2, 7] [nM]	EC50 [3, 8] [nM]	EC50 [4, 9] [nM]	EC50 [5, 10] [nM]	further results
					CC(C)c1cc(-c2nnc(O)n2-c2ccc3c(ccn3CCC3CCN(C(=O)NCCOCCOCCOCCOCCOCCOCCOCCOCCC(=O)N[C@@H](CSSCCOC(=O)N(CCC#Cc4ccc5c(c4)CN(C4CCC(=O)NC4=O)C5=O)C4CCC(NC(=O)N5CCN(c6ccc(Nc7ncc(Cl)c(Nc8ccccc8C(N)=O)n7)cc6)CC5)CC4)C(=O)N[C@H](Cc4ccccc4)C(=O)N[C@H]4CSSC[C@@H](C(=O)N[C@H](CO)[C@@H](C)O)NC(=O)[C@H]([C@@H](C)O)NC(=O)[C@H](CCCCN)NC(=O)[C@@H](Cc5c[nH]c6ccccc56)NC(=O)[C@H](Cc5ccccc5)NC4=O)CC3)c2)c(O)cc1O (some centres unmarked) [UB-181297]	> 1000	> 1000	> 1000	> 1000	> 1000	
8.8	273	4.1	> 1000	> 1000	CNC(=O)c1ccccc1Nc1nc(Nc2ccc(N3CCN(C(=O)NC4CCC(N(CCC#Cc5ccc6c(c5)CN(C5CCC(=O)NC5=O)C6=O)C(=O)OCc5ccc(NC(=O)[C@H](CC(N)=O)NC(=O)[C@H](C)NC(=O)[C@H](C)NC(=O)CCCCCN6C(=O)CC(SC[C@H](NC(=O)[C@H](CC(=O)O)NC(=O)[C@H](CC(=O)O)NC(=O)[C@H](CCCNC(=N)N)NC(=O)[C@H](CC(=O)O)NC(=O)CCC(NC(=O)c7ccc(NCc8cnc9nc(N)[nH]c(=O)c9n8)cc7)C(=O)O)C(=O)O)C6=O)cc5)CC4)CC3)cc2)ncc1Cl (some centres unmarked) [UB-181298]						
					CNC(=O)c1ccccc1Nc1nc(Nc2ccc(N3CCN(C(=O)N[C@H]4CC[C@@H](N(CCC#Cc5ccc6c(c5)CN(C5CCC(=O)NC5=O)C6=O)C(=O)OCCSSC[C@H](N)C(=O)N[C@H](Cc5ccccc5)C(=O)N[C@H]5CSSC[C@@H](C(=O)N[C@H](CO)[C@@H](C)O)NC(=O)[C@H]([C@@H](C)O)NC(=O)[C@H](CCCCN)NC(=O)[C@@H](Cc6c[nH]c7ccccc67)NC(=O)[C@H](Cc6ccccc6)NC5=O)CC4)CC3)cc2)ncc1Cl (some centres unmarked) [UB-181299]	246	679	302	> 1000	> 1000	
					NC(=O)c1ccccc1Nc1nc(Nc2ccc(N3CCN([C@H]4CC[C@@H](NCCC#Cc5ccc6c(c5)CN(C5CCC(=O)NC5=O)C6=O)CC4)CC3)cc2)ncc1Cl (some centres unmarked) [UB-181315]						EC50 ([1]; Homo sapiens, NCI-H82, H82 cells, 72 h culture, read-out: Anti cell proliferative activity EC50, H82): 314 nM; EC50 ([2]; Homo sapiens, N87 cells, 72 h culture, read-out: Anti cell proliferative activity EC50, N87): > 1000 nM; EC50 ([3]; Homo sapiens, COLO 205, Colo205 cells, 72 h culture, read-out: Anti cell proliferative activity EC50, Colo205): 723 nM; EC50 ([4]; Homo sapiens, NCI-H69, H69 cells, 72 h culture, read-out: Anti cell proliferative activity EC50, H69): > 1000 nM; EC50 ([5]; Homo sapiens, HT-29 cells, 72 h culture, read-out: Anti cell proliferative activity EC50, HT-29): > 1000 nM
171	> 1000	239	> 1000	> 1000	CNC(=O)c1ccccc1Nc1nc(Nc2ccc(N3CCN(C(=O)N[C@H]4CC[C@@H](N(CCC#Cc5ccc6c(c5)CN(C5CCC(=O)NC5=O)C6=O)C(=O)OCCSSC[C@H](NC(=O)[C@H](CC(=O)O)NC(=O)[C@H](CC(=O)O)NC(=O)[C@H](CCCNC(=N)N)NC(=O)[C@H](CC(=O)O)NC(=O)CCC(NC(=O)c5ccc(NCc6cnc7nc(N)[nH]c(=O)c7n6)cc5)C(=O)O)C(=O)O)CC4)CC3)cc2)ncc1Cl (some centres unmarked) [UB-181321]						
					N=C(N)NCCC[C@H](NC(=O)[C@H](CC(=O)O)NC(=O)CC[C@H](NC(=O)c1ccc(NCc2cnc3nc(N)[nH]c(=O)c3n2)cc1)C(=O)O)C(=O)N[C@@H](CC(=O)O)C(=O)N[C@@H](CC(=O)O)C(=O)N[C@@H](CSSCCOC(=O)N(CCC#Cc1ccc2c(c1)CN(C1CCC(=O)NC1=O)C2=O)C1CCC(NC(=O)N2CCN(c3ccc(Nc4ncc(Cl)c(Nc5ccccc5C(N)=O)n4)cc3)CC2)CC1)C(=O)O (some centres unmarked) [UB-181327]	283	> 1000	243	> 1000	855	
> 1000	> 1000	> 1000	> 1000	> 1000	CC[C@@H]1C(=O)N(C)c2cnc(Nc3ccc(-c4cn([C@H]5CC[C@@H](N(CCOCCC#Cc6cccc7c6CN(C6CCC(=O)NC6=O)C7=O)C(=O)OCCSSC[C@H](NC(=O)[C@H](CC(=O)O)NC(=O)[C@H](CC(=O)O)NC(=O)[C@H](CCCNC(=N)N)NC(=O)[C@H](CC(=O)O)NC(=O)CC[C@H](NC(=O)c6ccc(NCc7cnc8nc(N)[nH]c(=O)c8n7)cc6)C(=O)O)C(=O)O)CC5)nn4)cc3OC)nc2N1C1CCCC1 (some centres unmarked) [UB-181336]						
183	175	33.1	79.3	233	CC[C@@H]1C(=O)N(C)c2cnc(Nc3ccc(-c4cn([C@H]5CC[C@@H](N(CCOCCC#Cc6cccc7c6CN(C6CCC(=O)NC6=O)C7=O)C(=O)OCc6ccc(NC(=O)[C@H](CC(N)=O)NC(=O)[C@H](C)NC(=O)[C@H](C)NC(=O)CCCCCN7C(=O)CC(SC[C@H](NC(=O)[C@H](CC(=O)O)NC(=O)[C@H](CC(=O)O)NC(=O)[C@H](CCCNC(=N)N)NC(=O)[C@H](CC(=O)O)NC(=O)CCC(NC(=O)c8ccc(NCc9cnc%10nc(N)[nH]c(=O)c%10n9)cc8)C(=O)O)C(=O)O)C7=O)cc6)CC5)nn4)cc3OC)nc2N1C1CCCC1 (some centres unmarked) [UB-181337]						
					CC[C@@H]1C(=O)N(C)c2cnc(Nc3ccc(-c4cn([C@H]5CC[C@@H](N(CCOCCC#Cc6cccc7c6CN(C6CCC(=O)NC6=O)C7=O)C(=O)OCCSSC[C@H](NC(=O)CC[C@H](NC(=O)c6ccc(NCc7cnc8nc(N)[nH]c(=O)c8n7)cc6)C(=O)O)C(=O)N[C@H](Cc6ccccc6)C(=O)N[C@H]6CSSC[C@@H](C(=O)N[C@H](CO)[C@@H](C)O)NC(=O)[C@H]([C@@H](C)O)NC(=O)[C@H](CCCCN)NC(=O)[C@@H](Cc7c[nH]c8ccccc78)NC(=O)[C@H](Cc7ccccc7)NC6=O)CC5)nn4)cc3OC)nc2N1C1CCCC1 (some centres unmarked) [UB-181339]	236	456	249	> 1000	> 1000	
746	> 1000	847	> 1000	> 1000	C[C@@H](O)[C@@H]1NC(=O)[C@H](CCCCN)NC(=O)[C@@H](Cc2c[nH]c3ccccc23)NC(=O)[C@H](Cc2ccccc2)NC(=O)[C@@H](NC(=O)[C@@H](Cc2ccccc2)NC(=O)[C@@H](N)CSC2CC(=O)N(CCC(=O)N[C@@H](CC(=O)O)C(=O)N[C@@H](CCCNC(=N)N)C(=O)N[C@@H](CC(=O)O)C(=O)N[C@@H](CC(=O)O)C(=O)N[C@@H](CSSCCOC(=O)N(CCC#Cc3ccc4c(c3)CN(C3CCC(=O)NC3=O)C4=O)C3CCC(NC(=O)N4CCN(c5ccc(Nc6ncc(Cl)c(Nc7ccccc7C(N)=O)n6)cc5)CC4)CC3)C(=O)O)C2=O)CSSC[C@@H](C(=O)N[C@H](CO)[C@@H](C)O)NC1=O (some centres unmarked) [UB-181342] (I: H-C[dF]CF[dW]KTC[Thr(ol)] / II: DRDDC(X1)-OH; linker I:1-II:N via Succinimide(1-C2H4CO,3-yl); disulfide I:3-I:8)						
103	305	285	738	> 1000	C[C@H](NC(=O)[C@H](CC(=O)O)NC(=O)[C@H](CC(=O)O)NC(=O)[C@H](CCCNC(=N)N)NC(=O)[C@H](CC(=O)O)NC(=O)CCN1C(=O)CC(SC[C@H](N)C(=O)N[C@@H](Cc2ccccc2)C(=O)N[C@H]2CSSC[C@@H](C(=O)N[C@H](CO)[C@@H](C)O)NC(=O)[C@H]([C@@H](C)O)NC(=O)[C@H](CCCCN)NC(=O)[C@@H](Cc3c[nH]c4ccccc34)NC(=O)[C@H](Cc3ccccc3)NC2=O)C1=O)C(=O)N[C@@H](CC(N)=O)C(=O)Nc1ccc(COC(=O)N(CCC#Cc2ccc3c(c2)CN(C2CCC(=O)NC2=O)C3=O)C2CCC(NC(=O)N3CCN(c4ccc(Nc5ncc(Cl)c(Nc6ccccc6C(N)=O)n5)cc4)CC3)CC2)cc1 (some centres unmarked) [UB-181343] (I: H-CFCF[dW]KTC[Thr(ol)] / II: DRDDAN[PABC]-X2; linker I:1-II:N via Succinimide(1-C2H4CO,3-yl); disulfide I:3-I:8)						
					C[C@H](NC(=O)[C@H](C)NC(=O)[C@H](CS(=O)(=O)O)NC(=O)CCN1C(=O)CC(SC[C@H](N)C(=O)N[C@H](Cc2ccccc2)C(=O)N[C@H]2CSSC[C@@H](C(=O)N[C@H](CO)[C@@H](C)O)NC(=O)[C@H]([C@@H](C)O)NC(=O)[C@H](CCCCN)NC(=O)[C@@H](Cc3c[nH]c4ccccc34)NC(=O)[C@H](Cc3ccccc3)CC2=O)C1=O)C(=O)N[C@@H](CC(N)=O)C(=O)Nc1ccc(COC(=O)N(CCC#Cc2ccc3c(c2)CN(C2CCC(=O)NC2=O)C3=O)C2CCC(NC(=O)N3CCN(c4ccc(Nc5ncc(Cl)c(Nc6ccccc6C(N)=O)n5)cc4)CC3)CC2)cc1 (some centres unmarked) [UB-181345]	92.9	300	274	> 1000	> 1000	

SMILES	EC50 ([1]; 72 h) [nM]	EC50 ([2]; 72 h) [nM]	EC50 ([3]; 72 h) [nM]	EC50 ([4]; 72 h) [nM]	EC50 ([5]; 72 h) [nM]	EC50 [1, 6] [nM]	EC50 [2, 7] [nM]	EC50 [3, 8] [nM]	EC50 [4, 9] [nM]	EC50 [5, 10] [nM]	further results
CC[C@@H]1C(=O)N(C)c2cnc(Nc3ccc(-c4cn([C@H]5CC[C@@H](N(CCOCCC#Cc6cccc7c6CN(C6CCC(=O)NC6=O)C7=O)C(=O)OCc6ccc(NC(=O)[C@H](CC(N)=O)NC(=O)[C@H](C)NC(=O)[C@H](C)NC(=O)CCCCCN7C(=O)CC(SC[C@H](N)C(=O)N[C@@H](Cc8ccccc8)C(=O)N[C@H]8CSSC[C@@H](C(=O)N[C@H](CO)[C@@H](C)O)NC(=O)[C@H]([C@@H](C)O)NC(=O)[C@H](CCCCN)NC(=O)[C@@H](Cc9c[nH]c%10ccccc9%10)NC(=O)[C@H](Cc9ccccc9)NC8=O)C7=O)cc6)CC5)nn4)cc3OC)nc2N1C1CCCC1 (some centres unmarked) [UB-181334]	989	927	286	955	> 1000						
